Patent US20030021796A1, “Method of enhancing T cell immunity by selection of antigen specific T cells” (priority 2001, published 2003)
“Also recorded” adds a separate entry of the source.

Columns and labels:
[1] = test system: peptide selected CD4^+ cells; experiment: Antigen response (proliferation) of lymph node CD4^+ cells from peptide-injected TCR^TgTCRα^−H2-M^−Ii^− mice; assay type: cell-based, mouse
Experimental: Antigen response of TCR transgenic cells. Proliferation of lymph node cells isolated from TCR^TgTCRα^−and TCR^TgTCRα^−2-M^−Ii^− mice injected with the selecting peptide was measured in response to antigen. Response of the TCR^TgTCRα^− lymph node cells to different agonist peptides was measured by proliferation assay in a 96-well plate. 10^5 responder cells were stimulated with peptides presented by 5×10^5 irradiated C57BL6 splenocytes. Agonist peptides were used at concentrations of 0.01, 0.1, 0.5, 1.0, 2.5, 5.0, 10.0 and 20.0 μM. After 3 days cells were pulsed with 1 μCi of [^3H]thymidine added to each well and after 18 hours thymidine incorporation was measured. The sequences of peptides used were: PCC50V (AEGFSYTVANKNKGIT), PCC50L (AEGFSYTLANKNKGIT), PCC50V54A (AEGFSYTVANKAKGIT), PCC46A49A50V54A (AEGASYAVANKAKGIT), PCC50F54A (AEGFSYTFANKAKGIT), neutral ceramidase (AGFFQYTLYILASEG) and IgGVH (NADFKTPATLTVDKA). […] Proliferation was measured after 3 days by thymidine incorporation by pulsing cells with 1 μCi of [^3H] thymidine for 18 hours. […] For antagonism assays the percent of proliferation inhibition was calculated as 100-100*(thymidine incorporation in the presence of antagonist/thymidine incorporation in the absence of antagonist) (Lyons et al., 1996).

[2] = test system: lymph node cells; experiment: Repopulation of peripheral lymph nodes in peptide-injected TCR^TgTCRα^−H2-M^−Ii^− mice; assay type: in vivo, mouse
Experimental: Flow cytometry analysis. Monoclonal antibodies specific for CD4(RM4-5), CD8(53-6.7), VβB8(F23.1), CD69(H1.2F3), CD44(IM7) and CD62L(MEL-14) were purchased from PharMingen (San Diego, Calif.) and used according to manufacturer's recommendations. Cells were analyzed using a FACSCalibur instrument (Becton Dickinson, San Jose, Calif.) and CellQuest software. For intracellular stain cells were first stained for CD4 and CD8, fixed in 2% paraformaldehyde, permeabilized in 0.1% Tween-20 and stained with anti-bcl-2 antibody (Pharmingen) according to manufacturer instruction.
Peptide injections and surgical procedures. TCR^TgTCRα^− and TCR^TgTCRαH2-M^−Ii^− were injected i.p. with agonist and control peptides dissolved in PBS. After indicated time mice were sacrificed, thymus and lymph nodes were collected and single cell suspensions were prepared. Pups were injected with 2 μg of peptide subcutaneously 12-24 hours after birth and thymi were transplanted into recipient mice 24 hours after injection. 5-8 week old TCR^TgTCRα^− H2-M^−Ii^− mice were used for thymectomy or as thymic transplant recipients. Surgical procedures were performed as described (Coligan et al., 1997). Mice were handled according with the institutional guidance.

[3] = test system: transgenic CD4^+ T cells; experiment: Selection of transgenic CD4^+ T cells in TCR^TgTCRα^−→H-2M^−Ii^− radiation chimeras; details: mouse, in vivo
Description: Also disclosed by the inventors is the development of transgenic CD4^+ T cells in chimeras made by reconstituting H-2M^−Ii^− mice with the bone marrow from TCR^TgTCRα^− mice (TCR^TgTCRα^−→H-2M^−Ii^− chimeras). The development of thymocytes in such chimeras is arrested at the CD4^+CD8^+ stage despite the presence of selecting wild type A^b/self-peptide complexes on bone marrow-derived dendritic cells. […] This in vivo model relates that, in contrast to the reaggregation cultures (Yastumo et al., 2000), radioresistant thymic epithelial cells are required to provide an agonist signal that induces thymocyte differentiation towards CD4^+ lineage in vivo.

[4] = test system: TCR^TgTCRα^− lymph node cells; experiment: Proliferation of TCR transgenic lymph node cells stimulated with agonist peptides ([3H]thymidine incorporation); assay type: cell-based, mouse
Experimental: Antigen response of TCR transgenic cells. Proliferation of lymph node cells isolated from TCR^TgTCRα^−and TCR^TgTCRα^−2-M^−Ii^− mice injected with the selecting peptide was measured in response to antigen. Response of the TCR^TgTCRα^− lymph node cells to different agonist peptides was measured by proliferation assay in a 96-well plate. 10^5 responder cells were stimulated with peptides presented by 5×10^5 irradiated C57BL6 splenocytes. Agonist peptides were used at concentrations of 0.01, 0.1, 0.5, 1.0, 2.5, 5.0, 10.0 and 20.0 μM. After 3 days cells were pulsed with 1 μCi of [^3H]thymidine added to each well and after 18 hours thymidine incorporation was measured. The sequences of peptides used were: PCC50V (AEGFSYTVANKNKGIT), PCC50L (AEGFSYTLANKNKGIT), PCC50V54A (AEGFSYTVANKAKGIT), PCC46A49A50V54A (AEGASYAVANKAKGIT), PCC50F54A (AEGFSYTFANKAKGIT), neutral ceramidase (AGFFQYTLYILASEG) and IgGVH (NADFKTPATLTVDKA). All peptides were synthesized by FMOC (fluorenyl methoxycarbonyl) chemistry and purified by reversed-phase high-performance liquid chromatography. To compare the antigenic response of CD4^+ TCR Tg cells lymph node cells were collected from TCR^TgTCRα^− and TCR^TgTCRα^−H2-M^−Ii^− mice two weeks after peptide injection. Single cell suspensions were prepared and CD4^+ cells were sorted using magnetic beads coated with anti CD4 antibodies (MACS). Purity of sorted cells exceeded 85%. 2×10^4 of purified CD4^+ cells were used in proliferation assay. Cells were stimulated with increasing concentrations of agonist peptides presented by APCs from wild type or H2-M^−Ii^− mice. IgGVH derived peptide (20 μM) was used as a negative control. Peptides were presented by irradiated splenocytes from a C57BL6 mouse. Proliferation was measured after 3 days by thymidine incorporation by pulsing cells with 1 μCi of [^3H] thymidine for 18 hours. Antagonism assay was done by prepulsing 5×10^5 antigen-presenting cells per well for 2 hr. with 5 μM of the antigenic peptide PCC50V54A, washing, and then exposing them to varying concentrations of peptide analogs with 2×10^4 purified CD4^+ TCR^Tg lymphocytes as responder cells (Lyons et al., 1996). For antagonism assays the percent of proliferation inhibition was calculated as 100-100*(thymidine incorporation in the presence of antagonist/thymidine incorporation in the absence of antagonist) (Lyons et al., 1996).

[5] = test system: B16 melanoma cells; experiment: Protection against B16 melanoma transfected with A^bPCC50V54A-YFP in TCR^Tgα^−H-2M^−Ii^− mice; assay type: in vivo, mouse
Experimental: Protection of a mouse melanoma model. Peptide selected CD4^+ T cells are shown to be functional and protect mice from melanoma tumor cells. To determine if peptide selected T lymphocytes are able to mount an effective immune response in vivo the ability of peptide-selected CD4^+ cells to protect mice from melanoma was assessed. Melanoma B16-F1 was transfected with constructs encoding the A^bβPCC50V54A chain tagged with yellow fluorescent protein (YFP) and A^bα chain. These transfectants weakly stimulated TCR^Tgα^− CD4^+ cells from wild type mice. TCR^Tgα^−H2-M^−Ii^− mice received subcutaneous injection of B16 melanoma transfectants. At the same time, half of these mice also received selecting agonist peptide. After 12 days, animals were sacrificed, and the phenotype of tumor cells and peripheral CD4^+ T cells in draining lymph nodes was examined. As shown in FIGS. 16A-E, only mice that received selecting peptide accumulated peripheral CD4^+ T cells. These cells responded to tumor as assessed by upregulation of CD69 and downregulation of CD62L. Most importantly, tumors in mice that received a selecting peptide were much smaller (4-6 times) and were composed of melanoma cells without surface expression of antigenic complex (only about ¼ of cells were YFP^+ compared to more then ¾ in mice not treated with the selecting peptide). […]

Sequence: AEGFSYTVANKAKGIT [PCC50V54A, analog of pigeon cytochrome C peptide PCC(43-58)]
- response of peptide selected CD4^+ cells to agonist peptides in vitro [1]: functional and respond to agonist peptides; also recorded: weakly respond in vitro
- CD4^+ cells in peripheral lymph nodes ([2]; after i.p. injection, about two weeks): increase in the number of CD4^+ cells
- phenotype of peripheral CD4^+ cells (CD44, CD62L) ([2]; mouse, in vivo): had naïve phenotype
- total number of lymph node cells ([2]; two weeks after injection): 44.1×10^6±9.8
- appearance / positive selection of mature CD4^+ T cells in chimeras [3]: appeared only after injection
- agonist potency / agonist properties ([4]; in vitro stimulation of transgenic T cells): strong agonist
- recognition by the transgenic TCR / stimulation of transgenic cells ([4]; peptides presented by irradiated C57BL6 splenocytes): recognizes; also recorded: stimulate
- tumor mass / size relative to mice without selecting peptide ([5]; 20 μg i.p.): 4-6 times smaller
- expression of A^bPCC50V54A-YFP on remaining tumor cells ([5]; more then ¾ YFP^+ in mice not treated): do not express A^bPCC50V54A-YFP
